{
  "source": "paper PMC8498988",
  "about": "“Scaffold Hybridization Strategy Leads to the Discovery of Dopamine D3 Receptor-Selective or Multitarget Bitopic Ligands Potentially Useful for Central Nervous System Disorders” (ACS Chemical Neuroscience, 2021)",
  "key": {"D2R": {"target": "D2R (Homo sapiens, UniProt P14416)", "sequence (P14416 whole entry)": "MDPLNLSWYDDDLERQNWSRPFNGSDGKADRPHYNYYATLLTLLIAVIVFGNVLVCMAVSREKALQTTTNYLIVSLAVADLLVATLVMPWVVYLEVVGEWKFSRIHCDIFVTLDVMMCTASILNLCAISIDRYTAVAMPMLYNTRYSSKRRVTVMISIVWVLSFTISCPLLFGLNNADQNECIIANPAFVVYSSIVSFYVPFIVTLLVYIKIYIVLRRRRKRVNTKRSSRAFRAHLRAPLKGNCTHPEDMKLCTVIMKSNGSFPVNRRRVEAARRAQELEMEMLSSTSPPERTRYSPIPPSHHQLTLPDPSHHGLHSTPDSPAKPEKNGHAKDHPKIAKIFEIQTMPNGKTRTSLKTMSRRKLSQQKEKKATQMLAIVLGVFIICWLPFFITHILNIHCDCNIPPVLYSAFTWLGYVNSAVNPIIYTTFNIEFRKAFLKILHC", "assay": "Radioligand competition binding at human D2R ([3H]N-methylspiperone, HEK293 membranes)", "parameters": "expressed in transfected cells; host or cells: HEK293", "details": "HEK 293 cells expressing hD2R, read-out: Ki ± SEM, D2R", "description": "(§1) The novel hybrid derivatives 3–11 were tested at hD2R, hD3R, or hD4R stably expressed in HEK293 cells by competition binding assays, using [^3H]N-methylspiperone as the radioligand, to evaluate their D2-like affinity and subtype selectivity, following the previously reported procedures.[41],[45],[46]\n(§2) Binding at dopamine D2-like receptors was determined using previously described methods.[41],[45],[46] Membranes were prepared from HEK293 cells stably expressing human D2, D3, or D4, grown in a 50:50 mix of Dulbecco’s minimal essential medium (DMEM) and Ham’s F12 culture media, supplemented with 20 mM HEPES, 2 mM L-glutamine, 0.1 mM nonessential amino acids, 1× antibiotic/antimycotic, 10% heat-inactivated fetal bovine serum, and 200 μg/mL hygromycin (Life Technologies, Grand Island, NY) and kept in an incubator at 37 °C and 5% CO2. Upon reaching 80–90% confluency, the cells were harvested using premixed Earle’s Balanced Salt Solution (EBSS) with 5 μM EDTA (Life Technologies) and centrifuged at 3000 rpm for 10 min at 21 °C. The supernatant was removed, and the pellet was resuspended in 10 mL hypotonic lysis buffer (5 mM MgCl2, 5 mM Tris, pH 7.4 at 4 °C) and centrifuged at 20,000 rpm for 30 min at 4 °C. The pellet was then resuspended in fresh EBSS buffer made from 8.7 g/L Earle’s Balanced Salts without phenol red (US Biological, Salem, MA), 2.2 g/L sodium bicarbonate, pH to 7.4. A Bradford protein assay (Bio-Rad, Hercules, CA) was used to determine the protein concentration, and membranes were diluted to 500 μg/mL and stored at −80 °C for later use. Radioligand competition binding experiments were conducted using thawed membranes. Test compounds were freshly dissolved in 30% DMSO and 70% H2O to a stock concentration of 100 μM. To assist the solubilization of free-base compounds, 10 μL of glacial acetic acid was added along with DMSO. Each test compound was then diluted into 13 half-log serial dilutions using 30% DMSO vehicle; the final test concentrations ranged from 10 μM to 10 pM. The previously frozen membranes were diluted in fresh EBSS to a 100 μg/mL (for D2 or D3) or 200 μg/mL (D4) stock for binding. Radioligand competition experiments were conducted in glass tubes containing 300 μL of fresh EBSS buffer, 50 μL of diluted test compound, 100 μL of membranes (10 μg of total protein for D2 or D3 and 20 μg of total protein for D4), and 50 μL of [^3H]N-methylspiperone (0.4 nM final concentration; PerkinElmer). Nonspecific binding was determined using 10 μM butaclamol (Sigma-Aldrich, St. Louis, MO), and total binding was determined with the 30% DMSO vehicle. All compound dilutions were tested in triplicate and the reaction was incubated for 1 h at room temperature. The reaction was terminated by filtration through Whatman GF/B filters, presoaked for 1 h in 0.5% polyethylenimine, using a Brandel R48 filtering manifold (Brandel Instruments, Gaithersburg, MD). The filters were washed three times with 3 mL of ice-cold EBSS buffer and transferred to scintillation vials. CytoScint liquid scintillation cocktail (3 mL, MP Biomedicals, Solon, OH) was added, and vials were counted using a PerkinElmer Tri-Carb 2910 TR liquid scintillation counter (Waltham, MA)."}, "D4R": {"target": "T1, D4R (Homo sapiens, UniProt P21917)", "T1 sequence (P21917 1-419)": "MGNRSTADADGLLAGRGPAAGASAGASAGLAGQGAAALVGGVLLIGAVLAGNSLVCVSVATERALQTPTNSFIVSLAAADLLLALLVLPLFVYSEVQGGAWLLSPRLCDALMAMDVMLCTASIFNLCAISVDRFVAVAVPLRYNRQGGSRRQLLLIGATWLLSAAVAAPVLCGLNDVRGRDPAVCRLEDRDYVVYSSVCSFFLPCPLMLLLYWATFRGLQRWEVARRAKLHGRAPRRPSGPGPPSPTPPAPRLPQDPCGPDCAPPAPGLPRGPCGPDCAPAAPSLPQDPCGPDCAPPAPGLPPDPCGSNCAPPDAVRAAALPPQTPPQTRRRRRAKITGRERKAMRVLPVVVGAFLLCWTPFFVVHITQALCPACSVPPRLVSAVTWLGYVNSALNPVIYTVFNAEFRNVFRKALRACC", "assay": "Radioligand competition binding at human D4R ([3H]N-methylspiperone, HEK293 membranes)", "parameters": "expressed in transfected cells; host or cells: HEK293", "details": "HEK 293 cells expressing hD4R, read-out: Ki ± SEM, D4R", "description": "as §1, §2"}, "5-HT2AR [1]": {"target": "T2, 5-HT2AR (Homo sapiens, UniProt P28223)", "T2 sequence (P28223 whole entry)": "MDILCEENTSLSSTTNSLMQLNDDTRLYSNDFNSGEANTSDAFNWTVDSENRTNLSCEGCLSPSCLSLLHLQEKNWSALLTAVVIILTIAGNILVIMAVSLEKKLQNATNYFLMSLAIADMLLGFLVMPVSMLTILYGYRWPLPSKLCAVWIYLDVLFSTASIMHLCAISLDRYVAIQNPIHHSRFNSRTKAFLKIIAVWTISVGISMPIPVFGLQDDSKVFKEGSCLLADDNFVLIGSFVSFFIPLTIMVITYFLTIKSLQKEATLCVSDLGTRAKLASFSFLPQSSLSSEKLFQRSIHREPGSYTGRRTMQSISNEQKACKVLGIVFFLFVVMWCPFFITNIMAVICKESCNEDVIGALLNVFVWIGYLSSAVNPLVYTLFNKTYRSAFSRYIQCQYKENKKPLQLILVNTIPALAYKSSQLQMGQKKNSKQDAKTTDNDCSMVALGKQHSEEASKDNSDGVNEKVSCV", "assay": "Radioligand binding assay at human 5-HT2AR ([125I]DOI, HEK cells)", "parameters": "expressed in transfected cells; host or cells: HEK (HEK-h5HT2A)", "details": "HEK cells expressing h5-HT2AR, read-out: Ki ± SEM, 5-HT2AR", "description": "Human embryonic kidney cells expressing human 5HT2AR (HEK-h5HT2A) or human 5HT2CR (HEK-h5HT2C) are used. The cells are grown until confluent on 15 cm plates. The medium is removed, and the cells are washed with phosphate-buffered saline (PBS), scraped into 2 mL PBS, and frozen at −20 °C until needed. Cell suspension is thawed, 10 mL assay buffer (50 mM Tris, pH 7.4 at 37 °C, with 0.1% ascorbic acid and 5 mM CaCl2) is added per plate of cells, and polytronned at setting 6 for 5 s. The homogenate is centrifuged at 15,500 rpm for 20 min. To minimize the residual 5HT concentration, the pellet is resuspended in buffer, polytronned, and centrifuged as mentioned above. The final pellet is resuspended in 2 mL buffer/plate of cells. The binding assay includes 50 μL drug, 5-HT or buffer, 50 μL cell homogenate, 50 μL [^125I]DOI (∼0.1 nM), and buffer in a final volume of 250 μL. Specific binding is defined as the difference between total binding and binding in the presence of 10 μM 5HT. The reaction is incubated for 1 h at 37 °C and terminated by filtration through Wallac A filter mats presoaked in 0.05% polyethylenimine using a Tomtec 96-well harvester. The radioactivity remaining on filters is determined using a Wallac betaplate reader."}, "5-HT2AR [2]": {"target": "T2, 5-HT2AR", "assay": "5-HT2A IP-1 formation (HEK-h5HT2A cells)", "details": "for % inhib., 5-HT2A IP-1 formation: antagonist mode, normalized to the inhibition by 10 μM ketanserin; for functional behavior at 5-HT2AR: in words", "protocol": "HEK-h5HT2A or HEK-h5HT2C cells are used as the tissue source. The day before the experiment, cells are plated in 24-well plates at a density of 400,000 cells per well using DMEM supplemented with charcoal-stripped FetalClone. Drugs are made up in stimulation buffer supplied in the kit. Medium is removed from the well, test compounds or serotonin or antagonist or buffer is added, and the cells are incubated for 1 h. The cells are lysed for 30 min, and 50 μL of cell lysate is added to the IP-1 plates. After the addition of appropriate antibodies, the plates are incubated for 3 h, washed six times, incubated with the substrate for 20 min, and, after termination of the reaction, the plate is read on a plate reader at 450 nm with a correction at 620 nm."}},
  "data": [
    {"molecule": "O=C(NCCCCN1CCN(c2cccc(Cl)c2Cl)CC1)C1COCC(c2ccccc2)(c2ccccc2)O1", "note": "(centres unmarked) [compound 3, N-(4-(4-(2,3-Dichlorophenyl)piperazin-1-yl)butyl)-6,6-diphenyl-1,4-dioxane-2-carboxamide]", "values": [
      {"measurement": "Ki", "setting": "D2R", "value": "342 ± 105", "unit": "nM"},
      {"measurement": "Ki", "setting": "D4R", "value": "1350 ± 449", "unit": "nM"},
      {"measurement": "Ki", "setting": "5-HT2AR [1]", "value": "257 ± 38", "unit": "nM"},
      {"measurement": "% inhib., 5-HT2A IP-1 formation", "setting": "5-HT2AR [2]", "value": "(45.4) %"}
    ]},
    {"molecule": "O=C(NCCCCN1CCN(c2cccc(Cl)c2Cl)CC1)C1COC(c2ccccc2)(c2ccccc2)CO1", "note": "(centres unmarked) [compound 6, N-(4-(4-(2,3-Dichlorophenyl)piperazin-1-yl)butyl)-5,5-diphenyl-1,4-dioxane-2-carboxamide]", "values": [
      {"measurement": "Ki", "setting": "D2R", "value": "28.7 ± 5.4", "unit": "nM"},
      {"measurement": "Ki", "setting": "D4R", "value": "54.6 ± 7.3", "unit": "nM"},
      {"measurement": "Ki", "setting": "5-HT2AR [1]", "value": "28 ± 6", "unit": "nM"},
      {"measurement": "% inhib., 5-HT2A IP-1 formation", "setting": "5-HT2AR [2]", "value": "(88.6) %"},
      {"measurement": "functional behavior at 5-HT2AR", "setting": "5-HT2AR [2]", "value": "efficacious D2R and 5-HT2AR antagonists with high and low potency, respectively"}
    ]},
    {"molecule": "O=C(NCCCCN1CCN(c2cccc(Cl)c2Cl)CC1)C1COc2ccccc2O1", "note": "(centres unmarked) [compound 9, N-(4-(4-(2,3-Dichlorophenyl)piperazin-1-yl)butyl)-2,3-dihydrobenzo[b][1,4]dioxine-2-carboxamide]", "values": [
      {"measurement": "Ki", "setting": "D2R", "value": "46.4 ± 5.9", "unit": "nM"},
      {"measurement": "Ki", "setting": "D4R", "value": "74.7 ± 24.5", "unit": "nM"},
      {"measurement": "Ki", "setting": "5-HT2AR [1]", "value": "62 ± 15", "unit": "nM"},
      {"measurement": "% inhib., 5-HT2A IP-1 formation", "setting": "5-HT2AR [2]", "value": "(86.8) %"},
      {"measurement": "functional behavior at 5-HT2AR", "setting": "5-HT2AR [2]", "value": "efficacious D2R and 5-HT2AR antagonists with high and low potency, respectively"}
    ]}
  ]
}
